Columns and labels:
[1] = system: HIV-1IIIB; assay: HIV-1 antiviral assay in CEM-SS cells (MTS readout); details: positive controls
[2] = system: HCMV strain AD169; assay: HCMV plaque formation assay in MRC-5 cells; details: for inhibition of HCMV plaque formation as compared to the virus control experiment: 10 micrograms per ml, 7-10 days
[3] = system: IL-5, spleen cells; assay: Th1/Th2 cytokine profiling assay, IL-5; type: cell-based, Balb/c mice; details: 10 micrograms per ml; Ovalbumin-restimulated spleen cells, 72 hours
Text: (§1) Th1/Th2 Cytokine Profiling Assay The Balb/c mice (originated in 1923, it is a popular strain and is used in many different research disciplines. […] On day 50, spleens of the mice were harvested (3 weeks after last boost with Ovalbumin). […] This kit can be used to measure Interleukin-2 (IL-2), Interleukin-4 (IL-4), Interleukin-5 (IL-5), Interferon-γ (IFN-γ), and Tumor Necrosis Factor-α (TNF-α) protein levels in a single sample. The kit performance has been optimized for analysis of physiologically relevant concentrations (pg/ml levels) of specific cytokine proteins in tissue culture supernatants and serum samples.

[4] = system: IL-4, spleen cells; assay: Th1/Th2 cytokine profiling assay, IL-4; type: cell-based, Balb/c mice; details: 10 micrograms per ml; Ovalbumin-restimulated spleen cells, 72 hours
Text: as §1

[5] = system: hepatitis B virus (HBV) ayw strain; assay: HBV experimental assay system, secreted HBV DNA by TaqMan PCR; type: cell-based; details: 10 micrograms per ml; HepG2-2.2.15, six days, HBV DNA in supernatant; combination 0.95 mole peptide 1 and 1.05 mole peptide 2
[6] = system: HUVEC; assay: Endothelial tube formation assay; type: cell-based, human; details: 10 micrograms per ml, 20 hours, average tubule length, combination peptide 1:peptide 2 0.95 mole:1.05 mole
Method: The endothelial tube formation assay is based on the ability of endothelial cells to form three-dimensional capillary-like tubular structures when cultured on a gel of basement membrane extract. The endothelial tube formation assay represents a powerful model for studying inhibition and induction of angiogenesis. Pre-labeled HUVEC with Calcein AM were seeded in a 96-well culture plate coated with extracellular metrix (Chemicon international Cat. ECM625) and treated with test peptides—10 micrograms per ml—in full growth medium. Positive control was vehicle only. The endothelial cells were allowed to form tubes foe 20 hours and were then examined under an inverted fluorescent microscope. Duplicate wells for each treatment were photographed and quantitatively analyzed for an average tubule length using image analysis software ImageProPlus. Raw data were expressed as average tubule lenghs in pixels ±standard deviation. Statistic p values were computed using the Student's t-test.

[7] = system: A549 cells; assay: Apoptosis prevention assay (C2 ceramide, Annexin-5); type: cell-based, human; details: 10 micrograms per ml, 30 min pretreatment
[8] = system: RAW 264.7 cells; assay: Phagocytosis assay (Fluorescein-labeled Escherichia coli, flow cytometry); type: cell-based, mouse; details: 10 micrograms per ml
[9] = system: Primary Human endothelial cells (HUVEC); assay: Endothelial cell migration assay; type: cell-based; details: 10 micrograms per ml, 22 hours
[10] = system: IFNγ, spleen cells; assay: Th1/Th2 cytokine profiling assay, IFNγ; type: cell-based, Balb/c mice; details: 10 micrograms per ml; Ovalbumin-restimulated spleen cells, 72 hours
Text: as §1

[11] = system: TNF-a, spleen cells; assay: Th1/Th2 cytokine profiling assay, TNF-a; type: cell-based, Balb/c mice; details: 10 micrograms per ml; Ovalbumin-restimulated spleen cells, 72 hours
Text: as §1

[12] = system: IL-2, spleen cells; assay: Th1/Th2 cytokine profiling assay, IL-2; type: cell-based, Balb/c mice; details: 10 micrograms per ml; Ovalbumin-restimulated spleen cells, 72 hours
Text: as §1

Compound	antiviral activity of positive control compounds [1]	IL-5 spleen cells; TH2 response (% of control) [3]	IL-4 spleen cells; TH2 response (% of control) [4]	inhibition of HBV replication as compared to the virus control infection [5]	inhibition of the tube formation of endothelial cells [6]	inhibition of HCMV plaque formation as compared to the virus control experiment [2]	IFNγ spleen cells; TH1 response (% of control) [10]	TNF-a spleen cells; TH1 response (% of control) [11]	IL-2 spleen cells (% of control) [12]	further results
Cc1cn([C@H]2C[C@H](N=[N+]=[N-])[C@@H](CO)O2)c(=O)[nH]c1=O [AZT]	expected levels of antiviral activity	–	–	–	–	–	–	–	–	–
Nc1nc(O)c2ncn(COC(CO)CO)c2n1 [Ganciclovir, reference compound]	–	–	–	–	–	–	–	–	–	antiviral activity of positive control compound ([2]; HCMV AD169, positive control): expected levels of antiviral activity
CC(C)(C)NC(=O)[C@@H]1CN(Cc2cccnc2)CCN1C[C@@H](O)C[C@@H](Cc1ccccc1)C(=O)N[C@H]1c2ccccc2C[C@H]1O [indinavir]	expected levels of antiviral activity	–	–	–	–	–	–	–	–	–
Ac-Ser-Pro-Tyr-Ser-Ser-Asp-Thr-Thr-Pro-Ala-Ala-Phe-Ala-Tyr-NH2 (Ac-SPYSSDTTPAAFAY-NH2) [peptide 1]	–	70.7 % of control	80.4 % of control	40.7%	26%	did not inhibit HCMV plaque formation	102.8 % of control	107.4 % of control	116.2 % of control	increase of the ceramide-induced apoptosis on human lung cells [7]: 13.2%; increase of the phagocytic activity of murine macrophages ([8]; RAW 264.7, Fluorescein-labeled E. coli): 42.9%; induction of the migration of human endothelial cells [9]: 11%
Cys-Gly-Asn-Leu-Ser-Thr-Cys-Met-Leu-Gly-Thr-Tyr-Thr-Gln-Asp-Phe-Asn-Lys-Phe-His-Thr-Phe-Pro-Gln-Thr-Ala-Ile-Gly-Val-Gly-Ala-Pro-NH2 [peptide 2]	–	60.2 % of control	0.0 % of control	31.0%	18%	did not inhibit HCMV plaque formation	63.7 % of control	116.4 % of control	110.1 % of control	reduction of the ceramide-induced apoptosis on human lung cells ([7]; combination 0.95 mole peptide 1 and 1.05 mole peptide 2): 32.7%; inhibitory or activating effects on the phagocytic activity of murine macrophages ([8]; RAW 264.7, combination peptide 1:peptide 2 1.10 mole:0.90 mole): no inhibitory or activating effects on the phagocytic activity; inhibition of the migration of human endothelial cells [9]: 26%

Source: US20100204115A1, “USE OF ACETYL- (ALA10, 11)-RANTES (1-14) AND/OR CALCITONIN AS ANTI-ANGIOGENIC AGENTS” (priority 2007, published 2010)
